The source of these data is US10155765B2, “Carboxamide inhibitors of IRAK4 activity” (MERCK SHARP & DOHME CORP., priority 2015, dated 2018).

pIC50: −log10 of the molar value. Where a name gives a salt, the structure may show the parent alone.

IRAK4, sequence (Q9NWZ3 whole entry): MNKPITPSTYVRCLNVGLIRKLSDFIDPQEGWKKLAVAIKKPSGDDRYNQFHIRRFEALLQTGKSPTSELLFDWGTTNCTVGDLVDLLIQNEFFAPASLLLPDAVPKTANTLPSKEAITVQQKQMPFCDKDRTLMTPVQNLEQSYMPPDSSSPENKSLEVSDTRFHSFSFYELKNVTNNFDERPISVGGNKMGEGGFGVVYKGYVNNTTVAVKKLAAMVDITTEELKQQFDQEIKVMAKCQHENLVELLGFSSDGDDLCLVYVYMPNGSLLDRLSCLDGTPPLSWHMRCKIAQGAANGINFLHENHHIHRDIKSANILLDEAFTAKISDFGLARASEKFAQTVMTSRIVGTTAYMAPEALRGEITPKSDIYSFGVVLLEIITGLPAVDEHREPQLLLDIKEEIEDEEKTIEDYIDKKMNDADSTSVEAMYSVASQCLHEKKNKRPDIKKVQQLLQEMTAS

The experiment has as its target IRAK4 (Homo sapiens (Human), UniProt Q9NWZ3). Description: IRAK4 Kinase Assay (IMAP fluorescence polarization). In kind it is biochemical. The following applies: GST tagged IRAK4, 100 μM ATP, 30 minutes at 25° C., IMAP FP. The text has this:
Other assays are known in the literature and could be readily performed by those of skill in the art.
The reaction is initiated by the addition of ATP.
For orientation: In fluorescence polarisation assays a small probe gives low polarisation when free and higher when bound to something large.
The compound `Cn1cc(NC(=O)c2cnn3ccc(N[C@H]4CCS(=O)(=O)C[C@H]4N)nc23)c(C(N)=O)n1` (relative stereo) [Example 4, 5-{[cis-3-amino-1,1-dioxidotetrahydro-2H-thiopyran-4-yl]amino}-N-(3-carbamoyl-1-methyl-1H-pyrazol-4-yl)pyrazolo[1,5-a]pyrimidine-3-carboxamide trifluoroacetate] gave a pIC50 of 8.30.
With `Cn1cc(NC(=O)c2cnn3ccc(N[C@H]4CS(=O)(=O)CC[C@H]4N)nc23)c(C(N)=O)n1` (relative stereo) [Example 5, 5-{[cis-4-amino-1,1-dioxidotetrahydro-2H-thiopyran-3-yl]amino}-N-(3-carbamoyl-1-methyl-1H-pyrazol-4-yl)pyrazolo[1,5-a]pyrimidine-3-carboxamide trifluoroacetate] the figure was 7.82; with `NC(=O)c1nn(-c2cccnc2)cc1NC(=O)c1cnn2ccc(N[C@H]3CCCC[C@H]3N)nc12` (relative stereo) [Example 6, 5-{[cis-2-aminocyclohexyl]amino}-N-(3-carbamoyl-1-pyridin-3-yl-1H-pyrazol-4-yl)pyrazolo[1,5-a]pyrimidine-3-carboxamide], 9.10.
The value for `CN1CCCC(n2cc(NC(=O)c3cnn4ccc(N[C@H]5CCCC[C@H]5N)nc34)c(C(N)=O)n2)C1` (relative stereo) [Example 10, 5-{[cis-2-aminocyclohexyl]amino}-N-[3-carbamoyl-1-(1-methylpiperidin-3-yl)-1H-pyrazol-4-yl]pyrazolo[1,5-a]pyrimidine-3-carboxamide trifluoroacetate] was 7.60; that for `CNC(=O)c1nn(C)cc1NC(=O)c1cnn2ccc(N[C@H]3CCCC[C@H]3N)nc12` (relative stereo) [Example 16, 5-{[cis-2-aminocyclohexyl]amino}-N-[1-methyl-3-(methylcarbamoyl)-1H-pyrazol-4-yl]pyrazolo[1,5-a]pyrimidine-3-carboxamide trifluoroacetate] was 7.74.
The value for `CN(C)C(=O)c1nn(C)cc1NC(=O)c1cnn2ccc(N[C@H]3CCCC[C@H]3N)nc12` (relative stereo) [Example 17, 5-{[cis-2-aminocyclohexyl]amino}-N-[3-(dimethylcarbamoyl)-1-methyl-1H-pyrazol-4-yl]pyrazolo[1,5-a]pyrimidine-3-carboxamide trifluoroacetate] was 6.82; that for `CS(=O)(=O)N1CCC(n2cc(NC(=O)c3cnn4ccc(N[C@H]5CCCC[C@H]5N)nc34)c(C(N)=O)n2)CC1` (relative stereo) [Example 18, 5-{[cis-2-Aminocyclohexyl]amino}-N-{3-carbamoyl-1-[1-(methylsulfonyl)piperidin-4-yl]-1H-pyrazol-4-yl}pyrazolo[1,5-a]pyrimidine-3-carboxamide] was 8.70.
As for `CN1CCC(n2cc(NC(=O)c3cnn4ccc(N[C@H]5CCCC[C@H]5N)nc34)c(C(N)=O)n2)CC1` (relative stereo) [Example 19, 5-{[cis-2-Aminocyclohexyl]amino}-N-[3-carbamoyl-1-(1-methylpiperidin-4-yl)-1H-pyrazol-4-yl]pyrazolo[1,5-a]pyrimidine-3-carboxamide], the negative logarithm of the IC50 (pIC50) was 8.70.
Turning to `CS(=O)(=O)N1CCCC(n2cc(NC(=O)c3cnn4ccc(N[C@H]5CCCC[C@H]5N)nc34)c(C(N)=O)n2)C1` (relative stereo) [Example 20, 5-{[cis-2-aminocyclohexyl]amino}-N-{3-carbamoyl-1-[1-(methylsulfonyl)piperidin-3-yl]-1H-pyrazol-4-yl}pyrazolo[1,5-a]pyrimidine-3-carboxamide trifluoroacetate], the negative-log IC50 (pIC50) is 8.40.
The value for `Cn1cc(NC(=O)c2cnn3ccc(N[C@H]4COCC[C@H]4N)nc23)c(C(N)=O)n1` [Example 1, 5-(((3R,4R)-4-Aminotetrahydro-2H-pyran-3-yl)amino)-N-(3-carbamoyl-1-methyl-1H-pyrazol-4-yl)pyrazolo[1,5-a]pyrimidine-3-carboxamide] was 7.51.
With `Cn1cc(NC(=O)c2cnn3ccc(N[C@@H]4CCOC[C@@H]4N)nc23)c(C(N)=O)n1` [Example 2, 5-{[(3R,4R)-3-aminotetrahydro-2H-pyran-4-yl]amino}-N-(3-carbamoyl-1-methyl-1H-pyrazol-4-yl)pyrazolo[1,5-a]pyrimidine-3-carboxamide trifluoroacetate] the figure was 9.22.
The value for `Cn1cc(NC(=O)c2cnn3ccc(N[C@@H]4CCCC(F)(F)[C@@H]4N)nc23)c(C(N)=O)n1` [Example 3, 5-{[(1R,2R)-2-amino-3,3-difluorocyclohexyl]amino}-N-(3-carbamoyl-1-methyl-1H-pyrazol-4-yl)pyrazolo[1,5-a]pyrimidine-3-carboxamide trifluoroacetate] was 7.49; that for `NCCNc1ccn2ncc(C(=O)Nc3cn(-c4cccnc4)nc3C(N)=O)c2n1` [Example 11, 5-[(2-aminoethyl)amino]-N-(3-carbamoyl-1-pyridin-3-yl-1H-pyrazol-4-yl)pyrazolo[1,5-a]pyrimidine-3-carboxamide] was 9.15; that for `Cn1cc(NC(=O)c2cnn3ccc(NC4CCCCCC4N)nc23)c(C(N)=O)n1` (centres unmarked) [Example 13, 5-[(2-aminocycloheptyl)amino]-N-(3-carbamoyl-1-methyl-1H-pyrazol-4-yl)pyrazolo[1,5-a]pyrimidine-3-carboxamide] was 8.70.
Compound `Cn1cc(NC(=O)c2cnn3ccc(NC4CCNC4)nc23)c(C(N)=O)n1` (centres unmarked) [Example 14, N-(3-carbamoyl-1-methyl-1H-pyrazol-4-yl)-5-(pyrrolidin-3-ylamino)pyrazolo[1,5-a]pyrimidine-3-carboxamide hydrochloride] gave a negative-log IC50 (pIC50) of 6.92.
The value for `Cn1cc(NC(=O)c2cnn3ccc(NC4CCCNC4)nc23)c(C(N)=O)n1` (centres unmarked) [Example 15, N-(3-carbamoyl-1-methyl-1H-pyrazol-4-yl)-5-(piperidin-3-ylamino)pyrazolo[1,5-a]pyrimidine-3-carboxamide hydrochloride] was 7.48; that for `CCn1cc(NC(=O)c2cnn3ccc(N[C@@H]4CCCC[C@@H]4N)nc23)c(C(N)=O)n1` [Example 21, 5-{[(1R,2S)-2-Aminocyclohexyl]amino}-N-(3-carbamoyl-1-ethyl-1H-pyrazol-4-yl)pyrazolo[1,5-a]pyrimidine-3-carboxamide] was 9.22; that for `CC(C)n1cc(NC(=O)c2cnn3ccc(N[C@@H]4CCCC[C@@H]4N)nc23)c(C(N)=O)n1` [Example 22, 5-{[(1R,2S)-2-aminocyclohexyl]amino}-N-[3-carbamoyl-1-(1-methylethyl)-1H-pyrazol-4-yl]pyrazolo[1,5-a]pyrimidine-3-carboxamide trifluoroacetate] was 9.00.
The value for `NC(=O)c1nn(CCO)cc1NC(=O)c1cnn2ccc(N[C@@H]3CCCC[C@@H]3N)nc12` [Example 23, 5-{[(1R,2S)-2-aminocyclohexyl]amino}-N-[3-carbamoyl-1-(2-hydroxyethyl)-1H-pyrazol-4-yl]pyrazolo[1,5-a]pyrimidine-3-carboxamide trifluoroacetate] was 9.00; that for `COCCn1cc(NC(=O)c2cnn3ccc(N[C@@H]4CCCC[C@@H]4N)nc23)c(C(N)=O)n1` [Example 24, 5-{[(1R,2S)-2-aminocyclohexyl]amino}-N-[3-carbamoyl-1-(2-methoxyethyl)-1H-pyrazol-4-yl]pyrazolo[1,5-a]pyrimidine-3-carboxamide] was 8.52.

A word on the pIC50: it is −log10 of the IC50, conventionally taken in molar units.
